Tested on: 598228-144-R-J1-PDC complex spheroid viability
Assay: Anticancer human tumor 598228-144-R-J1-PDC patient-derived serous endometrial adenocarcinoma cell line growth inhibition [GQUAD]
Settings: for IC50: curve of first compound; for viability, T/C: stronger effect = lower value
How it was run: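 Multi-cell-type spheroids of tumor cells with HUVEC and mesenchymal stem cells, treated with drug combinations. Concentrations descend in half-log steps from near clinical Cmax, or from 10 microM where Cmax is unknown; viability read-out.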

[1] = second compound 0.0316 µM, first compound 0.0316 µM
[2] = second compound 0.0316 µM, first compound 0.1 µM
[3] = second compound 0.0316 µM, first compound 0.316 µM
[4] = second compound 0.0316 µM, first compound 1 µM
[5] = second compound 0.0316 µM, first compound 3.16 µM
[6] = second compound 0.0316 µM, first compound 10 µM
[7] = second compound 0.1 µM, first compound 0.0316 µM
[8] = second compound 0.1 µM, first compound 0.1 µM
[9] = second compound 0.1 µM, first compound 0.316 µM
[10] = second compound 0.1 µM, first compound 1 µM
[11] = second compound 0.1 µM, first compound 3.16 µM
[12] = second compound 0.1 µM, first compound 10 µM
[13] = second compound 0.316 µM, first compound 0.0316 µM
[14] = second compound 0.316 µM, first compound 0.1 µM
[15] = second compound 0.316 µM, first compound 0.316 µM
[16] = second compound 0.316 µM, first compound 1 µM
[17] = second compound 0.316 µM, first compound 3.16 µM
[18] = second compound 0.316 µM, first compound 10 µM
[19] = second compound 1 µM, first compound 0.0316 µM
[20] = second compound 1 µM, first compound 0.1 µM
[21] = second compound 1 µM, first compound 0.316 µM
[22] = second compound 1 µM, first compound 1 µM
[23] = second compound 1 µM, first compound 3.16 µM
[24] = second compound 1 µM, first compound 10 µM
[25] = second compound 3.16 µM, first compound 0.0316 µM
[26] = second compound 3.16 µM, first compound 0.1 µM
[27] = second compound 3.16 µM, first compound 0.316 µM
[28] = second compound 3.16 µM, first compound 1 µM
[29] = second compound 3.16 µM, first compound 3.16 µM
[30] = second compound 3.16 µM, first compound 10 µM
[31] = second compound 10 µM, first compound 0.0316 µM
[32] = second compound 10 µM, first compound 0.1 µM
[33] = second compound 10 µM, first compound 0.316 µM
[34] = second compound 10 µM, first compound 1 µM
[35] = second compound 10 µM, first compound 3.16 µM
[36] = second compound 10 µM, first compound 10 µM
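Further: spheroids exposed to the agents for one week before reading.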
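Wherever viability, T/C is given: percent of vehicle DMSO control viability so 100% = untreated growth.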

SMILES: C=CCn1c(=O)c2cnc(Nc3ccc(N4CCN(C)CC4)cc3)nc2n1-c1cccc(C(C)(C)O)n1 + CN(C)c1ccc(Nc2c3ccc(NC(=O)CCN4CCCC4)cc3nc3cc(NC(=O)CCN4CCCC4)ccc23)cc1
- IC50 (second compound 0.0316 µM): 0.913 µM
- IC50 (second compound 0.1 µM): 1.41 µM
- IC50 (second compound 0.316 µM): > 10 µM
- IC50 (second compound 1 µM): 2.29 µM
- IC50 (second compound 3.16 µM): 0.611 µM
- IC50 (second compound 10 µM): 0.233 µM
- viability, T/C [1]: 85.4%
- viability, T/C [2]: 99.5%
- viability, T/C [3]: 65%
- viability, T/C [4]: 44.2%
- viability, T/C [5]: 53.7%
- viability, T/C [6]: 48.2%
- viability, T/C [7]: 109%
- viability, T/C [8]: 97%
- viability, T/C [9]: 74.4%
- viability, T/C [10]: 47%
- viability, T/C [11]: 50.9%
- viability, T/C [12]: 45.3%
- viability, T/C [13]: 107%
- viability, T/C [14]: 83.6%
- viability, T/C [15]: 54%
- viability, T/C [16]: 52.5%
- viability, T/C [17]: 51.7%
- viability, T/C [18]: 52%
- viability, T/C [19]: 103%
- viability, T/C [20]: 79.3%
- viability, T/C [21]: 67.9%
- viability, T/C [22]: 50.8%
- viability, T/C [23]: 47.6%
- viability, T/C [24]: 47.7%
- viability, T/C [25]: 131%
- viability, T/C [26]: 88.3%
- viability, T/C [27]: 63.3%
- viability, T/C [28]: 32.1%
- viability, T/C [29]: 46.1%
- viability, T/C [30]: 21.9%
- viability, T/C [31]: 88.6%
- viability, T/C [32]: 72.8%
- viability, T/C [33]: 39.8%
- viability, T/C [34]: 21.7%
- viability, T/C [35]: 8.8%
- viability, T/C [36]: 4.75%

SMILES: CC(C)(O)C1CCC(Nc2ccc3ncc(-c4cccc(C(F)(F)F)c4)n3n2)CC1 (stereo not drawn) + CN(C)c1ccc(Nc2c3ccc(NC(=O)CCN4CCCC4)cc3nc3cc(NC(=O)CCN4CCCC4)ccc23)cc1
- IC50 (second compound 0.0316 µM): 1.86 µM
- IC50 (second compound 0.1 µM): 1.91 µM
- IC50 (second compound 0.316 µM): 2.1 µM
- IC50 (second compound 1 µM): 1.89 µM
- IC50 (second compound 3.16 µM): 1.97 µM
- IC50 (second compound 10 µM): 1.81 µM
- viability, T/C [1]: 112%
- viability, T/C [2]: 95.7%
- viability, T/C [3]: 79.2%
- viability, T/C [4]: 78.5%
- viability, T/C [5]: 25.1%
- viability, T/C [6]: 27.3%
- viability, T/C [7]: 96.3%
- viability, T/C [8]: 99%
- viability, T/C [9]: 112%
- viability, T/C [10]: 81.4%
- viability, T/C [11]: 26.6%
- viability, T/C [12]: 24.1%
- viability, T/C [13]: 98.9%
- viability, T/C [14]: 87.8%
- viability, T/C [15]: 112%
- viability, T/C [16]: 85.3%
- viability, T/C [17]: 31%
- viability, T/C [18]: 24.1%
- viability, T/C [19]: 101%
- viability, T/C [20]: 87.9%
- viability, T/C [21]: 128%
- viability, T/C [22]: 79%
- viability, T/C [23]: 29.5%
- viability, T/C [24]: 23.4%
- viability, T/C [25]: 110%
- viability, T/C [26]: 104%
- viability, T/C [27]: 107%
- viability, T/C [28]: 89.1%
- viability, T/C [29]: 22.6%
- viability, T/C [30]: 21.8%
- viability, T/C [31]: 93.3%
- viability, T/C [32]: 75.3%
- viability, T/C [33]: 81.7%
- viability, T/C [34]: 76.6%
- viability, T/C [35]: 24.8%
- viability, T/C [36]: 16.6%

SMILES: CCCS(=O)(=O)Nc1ccc(F)c(C(=O)c2c[nH]c3ncc(-c4ccc(Cl)cc4)cc23)c1F + CN(C)c1ccc(Nc2c3ccc(NC(=O)CCN4CCCC4)cc3nc3cc(NC(=O)CCN4CCCC4)ccc23)cc1
- IC50 (second compound 0.0316 µM): 7.87 µM
- IC50 (second compound 0.1 µM): 7.44 µM
- IC50 (second compound 0.316 µM): 7.33 µM
- IC50 (second compound 1 µM): 7.65 µM
- IC50 (second compound 3.16 µM): 7.08 µM
- IC50 (second compound 10 µM): 5.21 µM
- viability, T/C [1]: 105%
- viability, T/C [2]: 121%
- viability, T/C [3]: 93.8%
- viability, T/C [4]: 107%
- viability, T/C [5]: 110%
- viability, T/C [6]: 34.8%
- viability, T/C [7]: 94.3%
- viability, T/C [8]: 104%
- viability, T/C [9]: 111%
- viability, T/C [10]: 109%
- viability, T/C [11]: 123%
- viability, T/C [12]: 29.8%
- viability, T/C [13]: 122%
- viability, T/C [14]: 108%
- viability, T/C [15]: 97.1%
- viability, T/C [16]: 124%
- viability, T/C [17]: 93.2%
- viability, T/C [18]: 34.1%
- viability, T/C [19]: 89.3%
- viability, T/C [20]: 99.2%
- viability, T/C [21]: 110%
- viability, T/C [22]: 133%
- viability, T/C [23]: 108%
- viability, T/C [24]: 32.6%
- viability, T/C [25]: 94.1%
- viability, T/C [26]: 95.4%
- viability, T/C [27]: 80.8%
- viability, T/C [28]: 118%
- viability, T/C [29]: 100%
- viability, T/C [30]: 29.3%
- viability, T/C [31]: 103%
- viability, T/C [32]: 75.3%
- viability, T/C [33]: 100%
- viability, T/C [34]: 86.8%
- viability, T/C [35]: 74%
- viability, T/C [36]: 19.2%

SMILES: COc1ncnc(C2CC2)c1-c1ncc2cnn(Cc3ccc(-c4nc(C(F)(F)F)cn4C(C)C)cc3)c2n1 + CN(C)c1ccc(Nc2c3ccc(NC(=O)CCN4CCCC4)cc3nc3cc(NC(=O)CCN4CCCC4)ccc23)cc1
- IC50 (second compound 0.0316 µM): > 10 µM
- IC50 (second compound 0.1 µM): > 10 µM
- IC50 (second compound 0.316 µM): > 10 µM
- IC50 (second compound 1 µM): > 10 µM
- IC50 (second compound 3.16 µM): > 10 µM
- IC50 (second compound 10 µM): > 10 µM
- viability, T/C [1]: 91.3%
- viability, T/C [2]: 111%
- viability, T/C [3]: 95.9%
- viability, T/C [4]: 92.2%
- viability, T/C [5]: 111%
- viability, T/C [6]: 89.9%
- viability, T/C [7]: 105%
- viability, T/C [8]: 97.9%
- viability, T/C [9]: 101%
- viability, T/C [10]: 85.5%
- viability, T/C [11]: 102%
- viability, T/C [12]: 110%
- viability, T/C [13]: 112%
- viability, T/C [14]: 115%
- viability, T/C [15]: 99%
- viability, T/C [16]: 88.7%
- viability, T/C [17]: 120%
- viability, T/C [18]: 110%
- viability, T/C [19]: 112%
- viability, T/C [20]: 90.6%
- viability, T/C [21]: 102%
- viability, T/C [22]: 75.1%
- viability, T/C [23]: 95.2%
- viability, T/C [24]: 90.5%
- viability, T/C [25]: 89.8%
- viability, T/C [26]: 108%
- viability, T/C [27]: 94.3%
- viability, T/C [28]: 105%
- viability, T/C [29]: 90.9%
- viability, T/C [30]: 91.5%
- viability, T/C [31]: 84%
- viability, T/C [32]: 67.8%
- viability, T/C [33]: 72.2%
- viability, T/C [34]: 77.1%
- viability, T/C [35]: 71.1%
- viability, T/C [36]: 51.5%

Reference: PubChem BioAssay AID2060506 (Molecular Pharmacology Branch, DTP, NCI, 2025)
